± gives the standard deviation of the averaged measurements.
How the values were obtained:
UT-SCC-24A = assay: relative IC50 (midpoint of the fitted curve; maximal inhibition may be below 50%); higher = less potent; conditions: treatment time: 3 days
Description: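 HNSCC cell lines (500 cells/well, 384-well) were cultured on plastic, on top of (2D) or embedded (3D) in Matrigel or human leiomyoma matrix Myogel (500 ug/mL; Myogel 3D mixed with rat collagen I). Cells were treated for 3 days with 5 ten-fold concentrations of each drug, and viability was read by CellTiter-Glo. Viability was normalised to DMSO (0% inhibition) and 100 uM benzethonium chloride (100% inhibition) controls and fitted with the FIMM DSRT pipeline to give IC50 (nM), maximal % inhibition and the drug sensitivity score (DSS). Suffixes _1/_2/_3 on drug names are replicates.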

UT-SCC-106A = assay: relative IC50 (midpoint of the fitted curve; maximal inhibition may be below 50%); higher = less potent; conditions: treatment time: 3 days
Method in brief: (§1)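 Three growth formats were used for HPV-negative HNSCC cell lines in 384-well plates at 500 cells/well: bare plastic, wells coated with Matrigel or Myogel (500 µg/mL), and embedding in Matrigel or Myogel plus rat collagen I. Compounds were added at five 10-fold concentrations, and after 3 days CellTiter-Glo 2.0 luminescence was recorded and normalised to vehicle (0.1% DMSO) and cell-killing control wells. IC50, maximal inhibition and drug sensitivity score came from percent-inhibition dose–response fitting in the FIMM pipeline.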

UT-SCC-81 [1] = assay: as above; conditions: treatment time: 3 days
Method in brief: as §1

UT-SCC-40 = assay: as above; conditions: treatment time: 3 days
Method in brief: as §1

UT-SCC-28 = assay: as above; conditions: culture condition: plastic 2D (no matrix); treatment time: 3 days
Method in brief: as §1

UT-SCC-42A = assay: as above; conditions: treatment time: 3 days
Method in brief: as §1

UT-SCC-24B = assay: as above; conditions: culture condition: on top of Myogel; treatment time: 3 days
Method in brief: as §1

UT-SCC-42B = assay: as above; conditions: culture condition: on top of Myogel; treatment time: 3 days
Method in brief: as §1

UT-SCC-14 = assay: as above; conditions: treatment time: 3 days
Method in brief: as §1

UT-SCC-73 = assay: as above; conditions: treatment time: 3 days
Method in brief: as §1

UT-SCC-44 = assay: as above; conditions: treatment time: 3 days
Method in brief: as §1

UT-SCC-8 = assay: as above; conditions: treatment time: 3 days
Method in brief: as §1

UT-SCC-81 [2] = assay: maximal % inhibition of viability relative to DMSO; higher = stronger effect; conditions: treatment time: 3 days
Description: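 HNSCC cell lines (500 cells/well, 384-well) were cultured on plastic, on top of (2D) or embedded (3D) in Matrigel or human leiomyoma matrix Myogel (500 ug/mL; Myogel 3D mixed with rat collagen I). Cells were treated for 3 days with 5 ten-fold concentrations of each drug, and viability was read by CellTiter-Glo. Viability was normalised to DMSO and benzethonium chloride controls and fitted with the FIMM DSRT pipeline to give IC50 (nM), maximal % inhibition and DSS. Suffixes _1/_2/_3 are replicates. Only inhibition-mode (IC50) fits are kept.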

[3] = culture condition: on top of Matrigel
[4] = culture condition: on top of Myogel
[5] = culture condition: plastic 2D (no matrix)
[6] = culture condition: embedded in Myogel + collagen I
[7] = culture condition: embedded in Matrigel

With CO[C@H]1C[C@@H]2CC[C@@H](C)[C@@](O)(O2)C(=O)C(=O)N2CCCC[C@H]2C(=O)O[C@H]([C@H](C)C[C@@H]2CC[C@@H](OC(=O)C(C)(CO)CO)[C@H](OC)C2)CC(=O)[C@H](C)/C=C(\C)[C@@H](O)[C@@H](OC)C(=O)[C@H](C)C[C@H](C)/C=C/C=C/C=C/1C [Temsirolimus] the “relative IC50” value (UT-SCC-24A; [3]) was 2.16 nM, the “relative IC50” value (UT-SCC-24A; [4]) was 2.23 nM and the “relative IC50” value (UT-SCC-24A; [5]) was 1.66 nM. The “relative IC50” value (UT-SCC-106A; [3]) was 3.18 nM, the “relative IC50” value (UT-SCC-106A; [4]) was 4.08 nM and the “relative IC50” value (UT-SCC-106A; [5]) was 1.95 nM. The “relative IC50” value (UT-SCC-81 [1]; [3]) was 1.13 nM, the “relative IC50” value (UT-SCC-81 [1]; [4]) was 0.543 nM and the “relative IC50” value (UT-SCC-81 [1]; [5]) was 0.857 nM. The “relative IC50” value (UT-SCC-40; [6]) was 2.84 nM, the “relative IC50” value (UT-SCC-40; [3]) was 0.896 nM and the “relative IC50” value (UT-SCC-28) was 0.519 nM. For the same compound, the “relative IC50” value (UT-SCC-42A; [7]) was 5.49 nM, the “relative IC50” value (UT-SCC-42A; [4]) was 2.26 nM and the “relative IC50” value (UT-SCC-42A; [5]) was 7.63 nM. The “relative IC50” value (UT-SCC-24B) was 1 nM, the “relative IC50” value (UT-SCC-42B) was > 98.9 nM and the “relative IC50” value (UT-SCC-14; [7]) was 0.458 nM. For the same compound, the “relative IC50” value (UT-SCC-14; [6]) was 0.654 nM, the “relative IC50” value (UT-SCC-14; [3]) was 0.765 nM and the “relative IC50” value (UT-SCC-14; [4]) was 0.33 nM. The “relative IC50” value (UT-SCC-14; [5]) was 0.458 nM, the “relative IC50” value (UT-SCC-73; [6]) was 0.997 nM and the “relative IC50” value (UT-SCC-73; [3]) was 0.383 nM. The “relative IC50” value (UT-SCC-73; [5]) was 1.06 nM, the “relative IC50” value (UT-SCC-44; [3]) was 0.711 nM and the “relative IC50” value (UT-SCC-44; [5]) was 0.691 nM. For the same compound, the “relative IC50” value (UT-SCC-8; [7]) was 0.997 nM, the “relative IC50” value (UT-SCC-8; [4]) was 0.785 nM and the “relative IC50” value (UT-SCC-8; [5]) was 0.669 nM. For the same compound, the “maximal % inhibition of viability” value (UT-SCC-81 [2]; [7]) was 63.3 ± 16%, the “maximal % inhibition of viability” value (UT-SCC-81 [2]; [6]) was 56.5 ± 6% and the “maximal % inhibition of viability” value (UT-SCC-81 [2]; [3]) was 44.6 ± 5.2%. The “maximal % inhibition of viability” value (UT-SCC-81 [2]; [4]) was 54.3 ± 0.82%.

— the supplement of paper PMC7017272
